Test results from paper PMC6437697 (Journal of Medicinal Chemistry, 2019).

Columns and labels:
Test in all cases: KINOMEscan
Type in all cases: binding
Conditions in all cases: read-out: % control activity remaining
ZAK = target: T1, ZAK (Homo sapiens, UniProt Q9NYL2)
T1 construct: purchased Eurofins DiscoverX KINOMEscan

PAK7 = target: T2, PAK7 (Homo sapiens, UniProt Q9P286)
T2 construct: purchased Eurofins DiscoverX KINOMEscan

PRP4 = target: T3, PRP4 (Homo sapiens, UniProt Q13523)
T3 construct: purchased Eurofins DiscoverX KINOMEscan

PCTK1 = target: T4, PCTK1 (Homo sapiens, UniProt Q00536)
T4 construct: purchased Eurofins DiscoverX KINOMEscan

PRKCI = target: T5, PRKCI (Homo sapiens, UniProt P41743)
T5 construct: purchased Eurofins DiscoverX KINOMEscan
T5 sequence (P41743 1-596): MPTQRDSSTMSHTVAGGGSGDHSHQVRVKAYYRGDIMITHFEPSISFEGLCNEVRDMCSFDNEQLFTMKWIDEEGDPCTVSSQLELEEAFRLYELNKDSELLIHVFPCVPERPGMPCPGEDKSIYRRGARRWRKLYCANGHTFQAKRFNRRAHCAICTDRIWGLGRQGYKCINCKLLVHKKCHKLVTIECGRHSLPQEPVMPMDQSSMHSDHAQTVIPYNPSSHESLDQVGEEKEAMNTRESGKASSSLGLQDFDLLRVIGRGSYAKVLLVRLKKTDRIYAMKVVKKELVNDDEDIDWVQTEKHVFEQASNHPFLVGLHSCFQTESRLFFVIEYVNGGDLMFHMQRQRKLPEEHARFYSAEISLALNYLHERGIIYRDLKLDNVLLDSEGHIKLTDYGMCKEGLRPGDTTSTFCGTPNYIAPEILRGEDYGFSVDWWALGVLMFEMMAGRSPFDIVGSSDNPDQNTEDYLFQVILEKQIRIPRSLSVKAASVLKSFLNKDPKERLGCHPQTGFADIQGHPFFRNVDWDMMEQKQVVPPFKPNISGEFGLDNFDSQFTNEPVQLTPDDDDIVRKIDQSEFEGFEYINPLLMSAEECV

FGFR1 = target: T6, FGFR1 (Homo sapiens, UniProt P11362)
T6 construct: purchased Eurofins DiscoverX KINOMEscan

ERK1 = target: T7, ERK1 (Homo sapiens, UniProt P27361)
T7 construct: purchased Eurofins DiscoverX KINOMEscan

ULK1 = target: T8, ULK1 (Homo sapiens, UniProt O75385)
T8 construct: purchased Eurofins DiscoverX KINOMEscan
T8 sequence (O75385 1-1050): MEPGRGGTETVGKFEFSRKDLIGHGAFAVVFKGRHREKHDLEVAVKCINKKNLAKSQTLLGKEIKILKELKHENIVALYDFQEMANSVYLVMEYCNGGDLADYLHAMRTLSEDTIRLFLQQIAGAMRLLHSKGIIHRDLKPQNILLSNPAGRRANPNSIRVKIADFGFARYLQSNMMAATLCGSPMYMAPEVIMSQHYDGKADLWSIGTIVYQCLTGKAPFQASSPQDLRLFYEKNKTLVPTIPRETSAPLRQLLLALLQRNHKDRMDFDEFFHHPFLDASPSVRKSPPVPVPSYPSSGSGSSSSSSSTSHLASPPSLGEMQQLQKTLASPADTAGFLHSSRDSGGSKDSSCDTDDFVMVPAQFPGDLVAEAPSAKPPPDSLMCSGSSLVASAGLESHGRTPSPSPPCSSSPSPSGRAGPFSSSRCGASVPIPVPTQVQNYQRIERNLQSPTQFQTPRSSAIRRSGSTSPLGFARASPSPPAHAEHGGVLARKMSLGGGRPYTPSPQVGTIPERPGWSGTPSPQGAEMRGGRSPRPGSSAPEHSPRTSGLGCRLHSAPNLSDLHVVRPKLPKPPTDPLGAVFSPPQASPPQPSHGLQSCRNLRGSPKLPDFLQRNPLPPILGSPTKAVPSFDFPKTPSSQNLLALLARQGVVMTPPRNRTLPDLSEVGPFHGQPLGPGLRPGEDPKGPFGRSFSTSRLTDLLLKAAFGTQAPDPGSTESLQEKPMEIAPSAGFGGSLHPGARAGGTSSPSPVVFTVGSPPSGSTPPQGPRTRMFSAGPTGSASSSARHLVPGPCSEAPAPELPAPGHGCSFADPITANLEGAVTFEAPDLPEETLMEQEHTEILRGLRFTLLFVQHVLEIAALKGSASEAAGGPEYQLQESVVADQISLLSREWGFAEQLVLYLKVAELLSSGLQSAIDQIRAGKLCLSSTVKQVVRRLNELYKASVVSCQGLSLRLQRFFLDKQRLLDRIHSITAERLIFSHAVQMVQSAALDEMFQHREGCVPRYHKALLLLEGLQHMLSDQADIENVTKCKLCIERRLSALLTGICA

STK33 = target: T9, STK33 (Homo sapiens, UniProt Q9BYT3)
T9 construct: purchased Eurofins DiscoverX KINOMEscan

CAMK1D = target: T10, CAMK1D (Homo sapiens, UniProt Q8IU85)
T10 construct: purchased Eurofins DiscoverX KINOMEscan

NDR2 = target: T11, NDR2 (Homo sapiens, UniProt Q9Y2H1)
T11 construct: purchased Eurofins DiscoverX KINOMEscan
T11 sequence (Q9Y2H1 whole entry): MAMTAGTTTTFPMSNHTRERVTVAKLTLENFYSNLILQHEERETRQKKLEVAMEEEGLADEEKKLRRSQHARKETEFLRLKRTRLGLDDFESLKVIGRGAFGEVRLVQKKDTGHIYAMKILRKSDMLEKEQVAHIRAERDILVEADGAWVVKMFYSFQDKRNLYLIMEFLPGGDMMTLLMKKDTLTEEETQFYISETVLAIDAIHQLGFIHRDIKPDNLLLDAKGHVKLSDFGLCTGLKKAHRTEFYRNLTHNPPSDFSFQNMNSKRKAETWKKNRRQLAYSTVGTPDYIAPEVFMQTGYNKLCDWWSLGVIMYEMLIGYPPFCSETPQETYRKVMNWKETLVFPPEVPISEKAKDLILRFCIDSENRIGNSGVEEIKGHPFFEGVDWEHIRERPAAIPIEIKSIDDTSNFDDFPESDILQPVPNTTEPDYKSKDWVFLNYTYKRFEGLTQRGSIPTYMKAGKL

T10 sequence (Q8IU85 whole entry): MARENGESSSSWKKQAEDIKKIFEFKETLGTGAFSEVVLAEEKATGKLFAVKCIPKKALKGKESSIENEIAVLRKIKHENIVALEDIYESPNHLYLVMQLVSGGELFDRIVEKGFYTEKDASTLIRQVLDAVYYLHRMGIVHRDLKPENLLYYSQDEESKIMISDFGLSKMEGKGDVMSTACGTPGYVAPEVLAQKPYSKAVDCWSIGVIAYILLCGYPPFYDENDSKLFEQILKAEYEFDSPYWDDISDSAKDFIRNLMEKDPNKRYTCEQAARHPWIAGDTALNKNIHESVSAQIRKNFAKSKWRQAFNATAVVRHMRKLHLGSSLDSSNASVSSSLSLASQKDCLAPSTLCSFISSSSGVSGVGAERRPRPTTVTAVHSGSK
T1 sequence (Q9NYL2 whole entry): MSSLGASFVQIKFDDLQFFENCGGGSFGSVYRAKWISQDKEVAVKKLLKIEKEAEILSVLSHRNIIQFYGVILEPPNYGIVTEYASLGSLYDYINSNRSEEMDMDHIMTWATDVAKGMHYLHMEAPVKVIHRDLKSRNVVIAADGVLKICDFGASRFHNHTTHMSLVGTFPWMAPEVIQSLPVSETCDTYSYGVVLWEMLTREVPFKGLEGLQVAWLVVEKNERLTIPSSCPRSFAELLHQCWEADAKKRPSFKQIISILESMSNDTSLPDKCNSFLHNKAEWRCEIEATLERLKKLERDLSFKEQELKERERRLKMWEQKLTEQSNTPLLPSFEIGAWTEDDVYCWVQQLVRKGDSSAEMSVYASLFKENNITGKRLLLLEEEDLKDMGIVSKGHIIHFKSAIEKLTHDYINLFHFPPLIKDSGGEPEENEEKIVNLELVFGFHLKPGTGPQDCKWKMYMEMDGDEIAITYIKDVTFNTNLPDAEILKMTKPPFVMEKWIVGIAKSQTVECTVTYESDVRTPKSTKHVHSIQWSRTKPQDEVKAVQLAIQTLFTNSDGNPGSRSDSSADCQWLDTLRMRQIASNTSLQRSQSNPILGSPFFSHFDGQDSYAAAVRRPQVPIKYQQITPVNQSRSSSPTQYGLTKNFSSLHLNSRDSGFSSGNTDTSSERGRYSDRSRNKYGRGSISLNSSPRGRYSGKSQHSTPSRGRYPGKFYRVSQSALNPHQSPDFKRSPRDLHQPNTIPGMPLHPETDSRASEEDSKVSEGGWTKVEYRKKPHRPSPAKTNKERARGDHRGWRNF
T7 sequence (P27361 whole entry): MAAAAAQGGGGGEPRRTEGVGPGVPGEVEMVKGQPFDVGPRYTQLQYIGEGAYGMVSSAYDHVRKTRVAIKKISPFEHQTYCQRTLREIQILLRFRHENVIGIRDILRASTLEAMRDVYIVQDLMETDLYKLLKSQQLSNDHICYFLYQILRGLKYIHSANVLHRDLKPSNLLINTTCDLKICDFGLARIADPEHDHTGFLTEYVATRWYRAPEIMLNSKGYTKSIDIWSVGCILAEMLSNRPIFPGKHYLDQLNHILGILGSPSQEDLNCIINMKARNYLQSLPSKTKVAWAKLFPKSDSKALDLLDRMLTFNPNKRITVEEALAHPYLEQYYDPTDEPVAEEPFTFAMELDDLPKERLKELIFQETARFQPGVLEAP
T4 sequence (Q00536 whole entry): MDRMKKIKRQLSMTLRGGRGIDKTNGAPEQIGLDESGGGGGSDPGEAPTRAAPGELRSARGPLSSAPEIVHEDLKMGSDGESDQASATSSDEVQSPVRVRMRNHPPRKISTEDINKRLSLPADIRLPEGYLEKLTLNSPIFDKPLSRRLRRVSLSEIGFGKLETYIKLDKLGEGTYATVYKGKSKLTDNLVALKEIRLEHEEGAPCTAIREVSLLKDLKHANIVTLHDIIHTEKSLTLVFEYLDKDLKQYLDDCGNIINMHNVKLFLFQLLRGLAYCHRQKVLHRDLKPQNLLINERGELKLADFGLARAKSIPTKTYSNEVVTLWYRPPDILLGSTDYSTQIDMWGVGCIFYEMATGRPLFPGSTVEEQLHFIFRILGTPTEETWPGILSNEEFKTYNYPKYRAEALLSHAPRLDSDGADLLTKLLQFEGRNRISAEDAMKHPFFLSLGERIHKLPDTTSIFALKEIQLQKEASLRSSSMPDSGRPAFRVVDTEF
T3 sequence (Q13523 whole entry): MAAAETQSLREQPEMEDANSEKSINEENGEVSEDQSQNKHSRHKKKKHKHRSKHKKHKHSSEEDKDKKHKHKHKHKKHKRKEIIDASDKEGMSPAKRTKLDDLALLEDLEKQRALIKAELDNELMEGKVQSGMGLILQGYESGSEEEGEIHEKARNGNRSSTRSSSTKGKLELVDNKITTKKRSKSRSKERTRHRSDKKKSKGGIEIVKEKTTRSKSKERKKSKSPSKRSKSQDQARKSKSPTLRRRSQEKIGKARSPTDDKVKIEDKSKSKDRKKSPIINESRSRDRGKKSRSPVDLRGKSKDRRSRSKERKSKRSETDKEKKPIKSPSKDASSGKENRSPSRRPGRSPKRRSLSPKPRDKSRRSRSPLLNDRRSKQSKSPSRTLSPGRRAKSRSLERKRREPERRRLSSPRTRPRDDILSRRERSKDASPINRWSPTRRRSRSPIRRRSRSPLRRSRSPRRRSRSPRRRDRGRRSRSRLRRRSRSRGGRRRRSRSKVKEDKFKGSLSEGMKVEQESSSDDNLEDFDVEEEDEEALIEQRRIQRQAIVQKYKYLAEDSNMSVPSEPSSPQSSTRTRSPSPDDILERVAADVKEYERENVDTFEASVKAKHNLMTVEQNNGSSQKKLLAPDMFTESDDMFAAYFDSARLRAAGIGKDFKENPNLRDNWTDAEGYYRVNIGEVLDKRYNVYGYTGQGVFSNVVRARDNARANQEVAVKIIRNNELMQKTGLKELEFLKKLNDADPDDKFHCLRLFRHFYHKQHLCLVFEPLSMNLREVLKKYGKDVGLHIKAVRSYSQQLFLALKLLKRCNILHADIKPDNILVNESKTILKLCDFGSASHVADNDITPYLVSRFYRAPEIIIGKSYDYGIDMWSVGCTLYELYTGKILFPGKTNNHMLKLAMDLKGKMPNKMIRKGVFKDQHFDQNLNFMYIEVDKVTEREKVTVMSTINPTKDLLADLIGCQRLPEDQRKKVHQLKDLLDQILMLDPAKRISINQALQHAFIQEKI
T6 sequence (P11362 22-822): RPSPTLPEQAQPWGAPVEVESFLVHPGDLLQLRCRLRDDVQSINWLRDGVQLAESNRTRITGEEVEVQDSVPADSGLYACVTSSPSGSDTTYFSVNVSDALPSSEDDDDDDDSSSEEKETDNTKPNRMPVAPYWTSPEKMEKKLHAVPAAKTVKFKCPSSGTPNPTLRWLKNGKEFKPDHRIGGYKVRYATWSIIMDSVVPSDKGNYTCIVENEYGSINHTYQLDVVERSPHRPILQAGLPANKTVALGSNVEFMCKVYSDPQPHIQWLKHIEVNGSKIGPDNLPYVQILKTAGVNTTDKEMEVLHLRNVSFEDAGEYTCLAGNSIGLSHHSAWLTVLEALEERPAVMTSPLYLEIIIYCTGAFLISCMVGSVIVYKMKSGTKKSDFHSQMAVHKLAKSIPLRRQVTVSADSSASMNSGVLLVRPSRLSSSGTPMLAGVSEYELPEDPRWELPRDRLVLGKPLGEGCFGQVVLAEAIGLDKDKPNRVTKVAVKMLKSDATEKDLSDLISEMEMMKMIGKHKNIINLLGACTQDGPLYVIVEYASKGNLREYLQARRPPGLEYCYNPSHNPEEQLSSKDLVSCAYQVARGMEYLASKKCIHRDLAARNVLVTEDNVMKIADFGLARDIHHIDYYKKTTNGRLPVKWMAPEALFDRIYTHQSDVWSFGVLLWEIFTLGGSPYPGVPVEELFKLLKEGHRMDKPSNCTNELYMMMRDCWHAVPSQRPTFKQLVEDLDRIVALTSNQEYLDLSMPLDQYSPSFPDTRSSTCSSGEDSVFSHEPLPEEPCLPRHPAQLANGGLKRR
T9 sequence (Q9BYT3 whole entry): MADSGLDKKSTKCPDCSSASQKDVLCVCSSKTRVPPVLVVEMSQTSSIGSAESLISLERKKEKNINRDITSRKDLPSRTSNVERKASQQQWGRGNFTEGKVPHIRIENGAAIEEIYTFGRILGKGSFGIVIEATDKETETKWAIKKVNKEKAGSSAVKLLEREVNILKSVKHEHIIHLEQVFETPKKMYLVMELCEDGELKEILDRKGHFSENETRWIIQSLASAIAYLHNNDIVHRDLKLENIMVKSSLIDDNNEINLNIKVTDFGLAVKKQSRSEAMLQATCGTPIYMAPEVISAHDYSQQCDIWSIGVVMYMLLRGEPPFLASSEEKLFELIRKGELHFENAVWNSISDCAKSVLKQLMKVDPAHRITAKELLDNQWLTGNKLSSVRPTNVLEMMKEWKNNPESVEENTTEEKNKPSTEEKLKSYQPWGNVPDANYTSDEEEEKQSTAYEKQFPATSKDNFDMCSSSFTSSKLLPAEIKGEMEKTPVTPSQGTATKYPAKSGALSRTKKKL

Row | Structure (SMILES) | remaining binding at 1 µM (ZAK) [%] | remaining binding at 1 µM (PAK7) [%] | remaining binding at 1 µM (PRP4) [%] | remaining binding at 1 µM (PCTK1) [%] | remaining binding at 1 µM (PRKCI) [%] | remaining binding at 1 µM (FGFR1) [%] | remaining binding at 1 µM (ERK1) [%] | remaining binding at 1 µM (ULK1) [%] | remaining binding at 1 µM (STK33) [%] | remaining binding at 1 µM (CAMK1D) [%] | remaining binding at 1 µM (NDR2) [%]
1 | Clc1cc(NCC2CC2)c2ncc(-c3ccc4[nH]ncc4c3)n2n1 [compound 2, 6-Chloro-N-(cyclopropylmethyl)-3-(1H-indazol-5-yl)imidazo[1,2-b]pyridazin-8-amine] | 86 | 98 | 60 | 97 | 88 | 99 | 95 | 78 | 47 | 100 | 94
2 | O=C(CN1CCOCC1)N[C@H]1CC[C@H](Nc2cc(Cl)nn3c(-c4ccc5[nH]ncc5c4)cnc23)CC1 [compound 26] | 87 | 93 | 97 | 87 | 100 | 94 | 100 | 97 | 25 | 71 | 94
3 | CN1CCC(CNc2cc(Cl)nn3c(-c4cc5nc(Nc6ccccc6)[nH]c5cc4F)cnc23)CC1 [compound 31, 6-Chloro-3-(6-fluoro-2-(phenylamino)-1H-benzo[d]imidazol-5-yl)-N-((1-methylpiperidin-4-yl)methyl)imidazo[1,2-b]pyridazin-8-amine] | 93 | 95 | 93 | 37 | 89 | 87 | 92 | 79 | 100 | 85 | 100
